Data from patent US6476047B2, “Anellated dihydropyridines for the treatment of chronic pain” (Boehringer Ingelheim Pharma KG, priority 2000, dated 2002).
Where a name gives a salt, the structure may show the parent alone.

Columns and labels:
[1] = target: T1, N-type calcium channel in HEK-293-N26 cells (Homo sapiens, UniProt Q00975); experiment: Test B: Patch-clamp tests, N-type calcium channel blockade; assay type: cell-based
T1 construct: expressed in transfected cells; host or cells: HEK-293 (clone HEK-293-N26)
From the text: (§1) The concentration of the half-maximum inhibition (IC50-values) for the selected substances is in the submicro- to micromolar range. Independently of this optical method of measurement, the inhibitory effect on the N-type calcium channels was confirmed independently, by an electrophysiological method, using the patch-clamp technique on the same type of cells (Test B).
Test B: Patch-clamp Tests
N-type calcium channel blockade in HEK-293-N26 cells

[2] = target: T2, N-type calcium channels in HEK-293 cell (Homo sapiens, UniProt Q00975); experiment: Test A: Calcium imaging, inhibition of N-type calcium channels (FLUO-3, 80 mM K+ depolarisation); assay type: cell-based; conditions: FLUO-3 charged recombinant HEK-293 cells, potassium depolarisation (80 mM K+)
T2 construct: expressed in transfected cells; host or cells: HEK-293 (clone HEK-293-N26)
From the text: as §1
Inhibition of N-type calcium channels in HEK-293 cell

rats [3] = experiment: Test C: Formalin paw test; assay type: in vivo; conditions: po, rat, p.o., read-out: ED50 values Test C, inhibition of flinching
Method: Formalin Paw Test (Test C)
Male rats (Chbb: THOM) weighing 250-300 grams are used. 20 μl of a 2% formaldehyde solution is injected into the plantar region of the right hind paw. Immediately afterwards, the number of flinches (spasms of the affected hind paw) and the time spent licking the affected paw are recorded. After 5 minutes in each case the values are collated into epochs. Time-activity curves for flinches and licking are plotted from the epoch values. Typically, two phases of the formalin activity (flinches, licking) are observed. A first phase of 0-10 minutes and a second phase of 10-60 minutes. Between the two phases the number of flinches and the duration of licking fall towards 0 (interphase). The areas under the curve for the first phase and for the second phase are determined from the timeactivity curves. Usually 5 animals are used in each case for the control, placebo and dose of active substance. The results of the doses of active substance are compared with those of the control and ED50 values are calculated. ED50 is the dose at which the control values are inhibited by 50%.
Test C: Formalin-paw Test (Rat)
Inhibition of flinching (ED50 values in mg/kg; p.o.)

rats [4] = experiment: Test D: Chronic Constriction Injury (CCI, Bennett model), mechanohyperalgesia; assay type: in vivo; conditions: po, rat
From the text: Chronic Constriction Injury (CCI, Bennett Model) (Test D)
The principle of the method is producing hyperalgesia and allodynia in the plantar region (the sole of the hind paw). Sprague-Dawley rats (Harlan) weighing 250-350 grams are used.
Under anaesthetic, four loose ligatures are placed on the sciatic nerve of the left hind paw at intervals of 2.5 mm in such a way that the perinerval circulation is affected but not prevented. This leads to extravasation and oedema, resulting in neuropathy of the nerves which innervate the planter region. The right hind paw is treated in the same way without the ligatures. Control tests for allodynia and/or hyperalgesia are carried out without the administration of any substance before and 8-10 days after the operation. Then substance tests are carried out at intervals of 2-3 days. The effects of the substance on the various parameters and ED50 values are calculated (=doses which inhibit by 50% the allodynic or hyperalgesic effects of the stimulation).
Mechano-hyperalgesia (Pin Prick)
The animals are placed in cages with a wire mesh base. Using a blunt needle (e.g. a large safety pin) the skin of the sole of the paw (Plantar-region) is touched so that an indentation is only just produced. Similarly, the sole of the paw is pinched gently with forceps. […] The number and duration of positive reactions of the operated and control paws are measured. […]

T1 sequence (Q00975 whole entry): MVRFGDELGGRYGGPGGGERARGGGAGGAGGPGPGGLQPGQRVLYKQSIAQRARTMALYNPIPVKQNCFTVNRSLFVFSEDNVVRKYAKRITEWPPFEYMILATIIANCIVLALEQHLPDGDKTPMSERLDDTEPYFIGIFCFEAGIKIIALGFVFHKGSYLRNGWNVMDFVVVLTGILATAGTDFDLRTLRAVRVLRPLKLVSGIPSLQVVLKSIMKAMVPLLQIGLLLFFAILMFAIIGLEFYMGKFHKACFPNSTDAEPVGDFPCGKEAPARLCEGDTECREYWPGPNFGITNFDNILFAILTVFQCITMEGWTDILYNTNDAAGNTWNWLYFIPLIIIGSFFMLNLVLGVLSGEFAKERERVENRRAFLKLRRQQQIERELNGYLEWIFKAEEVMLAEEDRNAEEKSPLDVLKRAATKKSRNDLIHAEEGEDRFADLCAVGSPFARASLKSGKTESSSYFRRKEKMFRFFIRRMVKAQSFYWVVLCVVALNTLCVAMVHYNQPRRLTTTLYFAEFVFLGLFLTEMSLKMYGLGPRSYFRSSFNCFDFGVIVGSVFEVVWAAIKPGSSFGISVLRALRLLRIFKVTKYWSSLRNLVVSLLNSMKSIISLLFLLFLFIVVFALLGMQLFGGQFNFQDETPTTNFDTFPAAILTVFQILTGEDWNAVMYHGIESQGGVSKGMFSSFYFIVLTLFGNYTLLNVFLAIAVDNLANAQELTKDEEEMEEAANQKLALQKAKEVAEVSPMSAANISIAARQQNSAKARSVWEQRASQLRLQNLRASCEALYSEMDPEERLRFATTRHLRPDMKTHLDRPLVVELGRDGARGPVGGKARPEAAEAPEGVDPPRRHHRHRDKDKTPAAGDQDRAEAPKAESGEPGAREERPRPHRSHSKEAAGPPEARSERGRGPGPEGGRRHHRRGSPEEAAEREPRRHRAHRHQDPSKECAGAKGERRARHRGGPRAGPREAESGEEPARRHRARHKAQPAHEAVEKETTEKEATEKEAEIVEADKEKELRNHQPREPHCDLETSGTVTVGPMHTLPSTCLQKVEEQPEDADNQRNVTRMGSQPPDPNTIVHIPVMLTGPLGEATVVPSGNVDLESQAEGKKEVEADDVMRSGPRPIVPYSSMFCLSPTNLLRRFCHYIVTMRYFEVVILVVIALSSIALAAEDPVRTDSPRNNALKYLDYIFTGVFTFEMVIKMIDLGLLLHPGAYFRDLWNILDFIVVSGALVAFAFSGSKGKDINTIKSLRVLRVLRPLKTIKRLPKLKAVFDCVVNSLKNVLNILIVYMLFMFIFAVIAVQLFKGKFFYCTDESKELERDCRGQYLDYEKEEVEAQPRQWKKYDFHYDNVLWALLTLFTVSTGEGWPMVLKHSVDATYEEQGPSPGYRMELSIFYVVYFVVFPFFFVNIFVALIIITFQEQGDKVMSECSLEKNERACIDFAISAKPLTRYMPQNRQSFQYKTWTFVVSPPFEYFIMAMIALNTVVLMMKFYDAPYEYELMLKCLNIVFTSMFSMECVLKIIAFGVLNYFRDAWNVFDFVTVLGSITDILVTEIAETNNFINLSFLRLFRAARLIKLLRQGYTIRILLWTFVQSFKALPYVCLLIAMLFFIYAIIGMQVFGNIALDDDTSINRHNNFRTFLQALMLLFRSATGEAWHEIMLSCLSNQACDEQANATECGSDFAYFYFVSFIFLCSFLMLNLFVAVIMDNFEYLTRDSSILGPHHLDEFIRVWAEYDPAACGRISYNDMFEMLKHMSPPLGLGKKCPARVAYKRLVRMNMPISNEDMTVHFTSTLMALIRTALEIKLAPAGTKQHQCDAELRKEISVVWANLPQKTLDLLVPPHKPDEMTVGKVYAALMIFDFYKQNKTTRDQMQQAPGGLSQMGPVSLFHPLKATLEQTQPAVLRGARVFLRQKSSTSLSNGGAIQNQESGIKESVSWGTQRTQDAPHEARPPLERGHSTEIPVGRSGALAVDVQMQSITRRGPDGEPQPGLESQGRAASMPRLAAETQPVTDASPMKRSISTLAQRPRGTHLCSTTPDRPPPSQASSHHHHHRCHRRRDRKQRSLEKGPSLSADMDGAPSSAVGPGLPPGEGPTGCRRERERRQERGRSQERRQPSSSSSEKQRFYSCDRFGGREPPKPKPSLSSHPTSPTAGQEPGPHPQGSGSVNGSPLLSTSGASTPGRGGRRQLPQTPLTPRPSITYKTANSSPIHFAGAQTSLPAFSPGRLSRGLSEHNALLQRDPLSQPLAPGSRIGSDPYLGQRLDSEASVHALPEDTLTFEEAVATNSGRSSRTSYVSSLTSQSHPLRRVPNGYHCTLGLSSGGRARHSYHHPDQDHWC
T1 sequence (P54289 25-956 partner limits assumed): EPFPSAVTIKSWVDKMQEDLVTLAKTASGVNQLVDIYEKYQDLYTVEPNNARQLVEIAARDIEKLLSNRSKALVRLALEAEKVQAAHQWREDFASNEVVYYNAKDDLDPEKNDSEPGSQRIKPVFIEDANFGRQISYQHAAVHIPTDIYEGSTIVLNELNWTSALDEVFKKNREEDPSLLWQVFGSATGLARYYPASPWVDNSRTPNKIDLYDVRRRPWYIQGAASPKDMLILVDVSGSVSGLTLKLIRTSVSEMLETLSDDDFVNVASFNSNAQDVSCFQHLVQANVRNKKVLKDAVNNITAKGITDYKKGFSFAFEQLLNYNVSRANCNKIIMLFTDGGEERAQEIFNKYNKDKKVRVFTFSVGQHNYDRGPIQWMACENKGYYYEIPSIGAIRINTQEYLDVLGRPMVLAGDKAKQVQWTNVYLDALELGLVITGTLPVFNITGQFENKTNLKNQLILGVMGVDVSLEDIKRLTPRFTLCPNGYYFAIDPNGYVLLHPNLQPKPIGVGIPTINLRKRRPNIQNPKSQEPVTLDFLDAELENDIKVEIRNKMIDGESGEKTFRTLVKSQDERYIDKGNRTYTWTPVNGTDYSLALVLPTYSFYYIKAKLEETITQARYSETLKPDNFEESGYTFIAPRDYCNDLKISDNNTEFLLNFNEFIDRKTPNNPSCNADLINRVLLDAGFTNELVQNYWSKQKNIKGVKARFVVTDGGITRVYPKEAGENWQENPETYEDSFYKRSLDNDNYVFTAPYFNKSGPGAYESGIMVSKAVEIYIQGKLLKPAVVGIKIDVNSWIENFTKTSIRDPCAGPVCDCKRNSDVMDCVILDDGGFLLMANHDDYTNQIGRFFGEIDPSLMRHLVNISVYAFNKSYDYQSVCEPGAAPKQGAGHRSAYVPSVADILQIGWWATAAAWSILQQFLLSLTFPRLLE
T1 sequence (P54289 957-1103 partner limits assumed): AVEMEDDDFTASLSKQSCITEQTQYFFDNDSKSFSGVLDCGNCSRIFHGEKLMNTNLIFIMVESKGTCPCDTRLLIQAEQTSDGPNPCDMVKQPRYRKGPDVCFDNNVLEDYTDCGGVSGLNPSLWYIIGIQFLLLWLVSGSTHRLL
T1 sequence (P54284 whole entry partner): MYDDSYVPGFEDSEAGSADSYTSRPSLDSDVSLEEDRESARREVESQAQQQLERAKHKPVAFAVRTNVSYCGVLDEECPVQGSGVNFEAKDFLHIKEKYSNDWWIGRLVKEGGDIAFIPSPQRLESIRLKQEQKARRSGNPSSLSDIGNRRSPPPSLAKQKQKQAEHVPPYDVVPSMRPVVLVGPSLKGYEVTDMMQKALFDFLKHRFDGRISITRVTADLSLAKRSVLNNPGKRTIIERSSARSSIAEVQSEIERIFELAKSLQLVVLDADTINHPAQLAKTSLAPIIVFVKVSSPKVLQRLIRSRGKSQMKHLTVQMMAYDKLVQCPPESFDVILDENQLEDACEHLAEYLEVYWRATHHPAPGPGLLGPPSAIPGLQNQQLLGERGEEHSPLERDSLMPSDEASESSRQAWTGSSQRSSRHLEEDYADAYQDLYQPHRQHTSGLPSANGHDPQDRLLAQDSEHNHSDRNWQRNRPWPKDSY
T2 sequence (Q00975 whole entry): as the sequence (Q00975 whole entry) above
T2 sequence (P54289 25-956 partner limits assumed): as the sequence (P54289 25-956 partner limits assumed) above
T2 sequence (P54289 957-1103 partner limits assumed): as the sequence (P54289 957-1103 partner limits assumed) above
T2 sequence (P54284 whole entry partner): as the sequence (P54284 whole entry partner) above

melting point [°C]	IC50 [1] [nM]	IC50 [2] [nM]	Compound	further results
173 to 175	–	–	COc1cc2c(c(OC)c1OC)CCN=C2c1ccc(Oc2ccccc2)cc1 (as salt: salt) [Example 3]	–
197	–	–	COc1cc2c(cc1OC)C(C)(C)CN=C2c1ccc(Oc2cc(C(F)(F)F)cc(C(F)(F)F)c2)cc1 (as salt: salt) [Example 7]	–
215	–	–	COc1cc2c(cc1OC)C(c1ccc(Oc3cc(C(F)(F)F)cc(C(F)(F)F)c3)cc1)=NCC2 (as salt: salt) [Example 10]	–
172	–	–	CCCCCCOc1ccc(C2=NCCc3cc(OC)c(OC)cc32)cc1 (as salt: salt) [Example 2]	–
–	1800	1860	COc1cc2c(cc1OC)C(c1ccc(Oc3ccccc3)cc1)=NCC2 [Example 1]	ED50 (rats [3]): 10 mg/kg
141 to 142	–	1830	COc1cc2c(cc1OC)C(C)(C)CN=C2c1ccc(Oc2ccccc2)cc1 [Example 4]	–
–	1600	5540	COc1ccc2c(c1)C(C)(C)CN=C2c1ccccc1Oc1cc(C(F)(F)F)cc(C(F)(F)F)c1 [Example 12]	–
–	1120	940	COc1cc2c(cc1OC)C(c1ccc(Oc3ccc(C(F)(F)F)cc3)cc1)=NCC2 [Example 6]	–
234 to 235	–	–	FC(F)(F)c1ccc(Oc2ccc(C3=NCCc4ccccc43)cc2)cc1 (as salt: salt) [Example 17]	–
–	8200	–	FC(F)(F)c1ccc(Oc2ccc(C3=NCCc4ccccc43)cc2)cc1 [Example 17]	–
–	260	3980	CC1(C)CN=C(c2ccccc2Oc2cc(C(F)(F)F)cc(C(F)(F)F)c2)c2ccccc21 [Example 9, 3,4-dihydro-4,4-dimethyl-1-[2-(3,5-ditrifluoromethyl)phenoxy]phenyl-isoquinoline hydrochloride]	ED50 (rats [3]): 10 mg/kg
–	1220	–	CC1(C)CN=C(c2ccc(Oc3cc(C(F)(F)F)cc(C(F)(F)F)c3)cc2)c2ccccc21 [Example 16]	–
218	–	–	COc1cc2c(cc1OC)C(c1ccc(Oc3ccc(C(F)(F)F)cc3)cc1)=NCC2 (as salt: salt) [Example 6]	–
–	1000	1260	COc1cc2c(cc1OC)C(C)(C)CN=C2c1ccc(Oc2cc(C(F)(F)F)cc(C(F)(F)F)c2)cc1 [Example 7]	–
–	–	1950	COc1cc2c(cc1OC)C(c1ccc(Oc3cc(C(F)(F)F)cc(C(F)(F)F)c3)cc1)=NCC2 [Example 10]	–
–	1090	1200	CCCCCCOc1ccc(C2=NCCc3cc(OC)c(OC)cc32)cc1 [Example 2]	–

melting point [°C]	IC50 [1] [nM]	IC50 [2] [nM]	Compound	further results
210 to 211	–	–	COc1cc2c(cc1OC)C(C)(C)CN=C2c1cccc(Oc2cc(C(F)(F)F)cc(C(F)(F)F)c2)c1 (as salt: salt) [Example 14]	–
172 to 173	–	–	COc1cc2c(cc1OC)C(C)(C)CN=C2c1ccccc1Oc1cc(C(F)(F)F)cc(C(F)(F)F)c1 (as salt: salt) [Example 8]	–
181	–	–	COc1cc2c(cc1OC)C(C)(C)CN=C2c1cccc(Oc2ccccc2)c1 (as salt: salt) [Example 15]	–
–	–	3260	CCCCCCOc1ccc(C2=NCC(C)(C)c3ccccc32)cc1 [Example 11]	–
–	–	1940	COc1cc2c(c(OC)c1OC)CCN=C2c1ccc(Oc2ccccc2)cc1 [Example 3]	–
217 to 218	–	–	CC1(C)CN=C(c2ccc(Oc3cc(C(F)(F)F)cc(C(F)(F)F)c3)cc2)c2ccccc21 (as salt: salt) [Example 16]	–
195 to 198	–	–	COc1cc2c(cc1OC)C(C)(C)CN=C2c1ccc(Oc2ccc(C(F)(F)F)cc2)cc1 (as salt: salt) [Example 5]	–
–	–	1620	COc1cc2c(cc1OC)C(C)(C)CN=C2c1cccc(Oc2ccccc2)c1 [Example 15]	–
211 to 212	–	–	CC1(C)CN=C(c2ccccc2Oc2cc(C(F)(F)F)cc(C(F)(F)F)c2)c2ccccc21 (as salt: hydrochloride) [Example 9, 3,4-dihydro-4,4-dimethyl-1-[2-(3,5-ditrifluoromethyl)phenoxy]phenyl-isoquinoline hydrochloride]	–
–	–	1610	COc1cc2c(cc1OC)C(C)(C)CN=C2c1cccc(Oc2cc(C(F)(F)F)cc(C(F)(F)F)c2)c1 [Example 14]	–
–	1330	820	COc1cc2c(cc1OC)C(C)(C)CN=C2c1ccc(Oc2ccc(C(F)(F)F)cc2)cc1 [Example 5]	ED50 (rats [3]): 15 mg/kg; ED50 (rats [4]): 10 mg/kg
209 to 210	–	–	COc1cc2c(cc1OC)C(c1ccc(Oc3ccccc3)cc1)=NCC2 (as salt: salt) [Example 1]	–
–	1700	3160	COc1cc2c(cc1OC)C(C)(C)CN=C2c1ccccc1Oc1cc(C(F)(F)F)cc(C(F)(F)F)c1 [Example 8]	–
122 to 123	–	–	COc1ccc2c(c1)C(C)(C)CN=C2c1ccccc1Oc1cc(C(F)(F)F)cc(C(F)(F)F)c1 (as salt: salt) [Example 12]	–
186 to 187	–	–	CCCCCCOc1ccc(C2=NCC(C)(C)c3ccccc32)cc1 (as salt: salt) [Example 11]	–
